20 cell lines from the supplement of paper PMC10307832 can be followed below.

Compound in the experiment: Cc1cc([C@@H](C)Nc2ccccc2C(=O)O)c2nc(N3CCOCC3)cc(=O)n2c1 [AZD6482]
The experiment in a line: relative viability (nuclei count vs DMSO), 5 days (fraction); higher = more cells survive. The method, boiled down:
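On vehicle-anchored 1536-well plates, lung cancer cell lines held overnight at 37 °C were pinned with five library-drug doses (not always all listed) spaced by √10. With no medium change over 5 days, they were then fixed, permeabilised and Hoechst-stained in one step and imaged at 4×. MetaXpress counted nuclei, and viability is the median across plates of treated-well over vehicle-well nuclei. Acceptance needed control CV below 25% and at least one doubling.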

As for NCI-H1975, the relative viability stood at 0.853 (0.08 µM); 0.84 (0.253 µM); 0.939 (0.8 µM); 0.652 (2.53 µM); 0.573 (8 µM).
As for NCI-H1993, the relative viability was 0.68 (0.08 µM); 0.792 (0.253 µM); 0.631 (0.8 µM); 0.557 (2.53 µM); 0.676 (8 µM).
With NCI-H2009, the relative viability runs as follows: (0.08 µM) 1.02; (0.253 µM) 1.04; (0.8 µM) 1.06; (2.53 µM) 0.59; (8 µM) 0.74.
Consider NCI-H2023, for which the relative viability was 0.923 (0.08 µM); 0.881 (0.253 µM); 0.909 (0.8 µM); 0.567 (2.53 µM); 0.662 (8 µM).
In the case of NCI-H2085, the relative viability (0.08 µM) was 0.801; the relative viability (0.253 µM) came to 0.675; the relative viability (0.8 µM) came to 0.588; the relative viability (2.53 µM) came to 0.4; the relative viability (8 µM) stood at 0.384.
For NCI-H2087, the relative viability was determined as 0.841 (0.08 µM); 0.996 (0.253 µM); 1.35 (0.8 µM); 0.555 (2.53 µM); 1.08 (8 µM).
As to NCI-H2126, the relative viability (0.08 µM) is 0.916; the relative viability (0.253 µM) came to 0.94; the relative viability (0.8 µM) came out at 0.891; the relative viability (2.53 µM) worked out at 0.585; the relative viability (8 µM) amounted to 0.654.
NCI-H2170: the relative viability amounted to 0.909 (0.08 µM); 0.897 (0.253 µM); 0.944 (0.8 µM); 0.851 (2.53 µM); 0.927 (8 µM).
For the cell line NCI-H2228, the relative viability (0.08 µM) is 0.745; the relative viability (0.253 µM) was found to be 0.965; the relative viability (0.8 µM) amounted to 1.17; the relative viability (2.53 µM) was determined as 0.775; the relative viability (8 µM) came out at 0.901.
On the same counts, the results for NCI-H2342 are 0.892, 0.87, 0.92, 0.653 and 0.688.
Take NCI-H2347: the relative viability came to 0.627 (0.08 µM); 0.785 (0.253 µM); 0.805 (0.8 µM); 0.617 (2.53 µM); 0.664 (8 µM).
For NCI-H2405, the relative viability is 0.749 (0.08 µM); 0.672 (0.253 µM); 1.03 (0.8 µM); 0.631 (2.53 µM); 0.599 (8 µM).
On to NCI-H3122, for which the relative viability is, setting by setting: (0.08 µM) 1; (0.253 µM) 1.02; (0.8 µM) 1.01; (2.53 µM) 0.756; (8 µM) 0.915.
For PC-3 [JPC-3], the relative viability worked out at 0.899 (0.08 µM); 1.06 (0.253 µM); 1.08 (0.8 µM); 0.814 (2.53 µM); 0.985 (8 µM).
For PC-14, the relative viability is, setting by setting: (0.08 µM) 0.953; (0.253 µM) 0.972; (0.8 µM) 1.12; (2.53 µM) 0.849; (8 µM) 0.979.
RERF-LC-KJ: the relative viability reads like this: (0.08 µM) 0.875; (0.253 µM) 0.888; (0.8 µM) 0.784; (2.53 µM) 0.878; (8 µM) 0.763.
Regarding SK-LU-1, the relative viability is, setting by setting: (0.253 µM) 0.978; (0.8 µM) 1.03; (2.53 µM) 0.722; (8 µM) 0.592.
As to SK-MES-1, the relative viability by setting is: (0.08 µM) 0.794; (0.253 µM) 0.946; (0.8 µM) 0.709; (2.53 µM) 0.405; (8 µM) 0.444.
For SW 900, the relative viability is, setting by setting: (0.08 µM) 0.675; (0.253 µM) 0.683; (0.8 µM) 0.691; (2.53 µM) 0.486; (8 µM) 0.778.
On to SW 1573, for which the relative viability came to 0.916 (0.08 µM); 0.908 (0.253 µM); 0.818 (0.8 µM); 0.677 (2.53 µM); 0.674 (8 µM).
